Columns and labels:
[1] = target: RAC-alpha serine/threonine-protein kinase (Homo sapiens, UniProt P31749); experiment: AKT Enzyme Assay: A TTP Mosquito liquid handling instrument is used to place 125 nl of the appropriate concentration of inhibitor in 100% DMSO (for a dose response curve calculation) into each well of a 384-well plate. To this reaction components are added to a final volume of 12.5 µl: 0.1 ng/µl His-AKT (Full Length), (Invitrogen, Part # P2999, Lot #641228C). 160 uM ATP (Fluka, 02055) 1 mM DTT (Sigma, D0632) 1 mM MgCl2 (Sigma, M1028) 1 µM substrate peptide (sequence FITC-AHA-[…]-NH2), synthesized by Tufts Peptide Synthesis service. 100 mM HEPES pH 7.5 (Calbiochem, 391338)0.015% Brij-35 (Sigma, B4184)The reaction is incubated for 90 min at 25 C, and then stopped by the addition of 70 µl of Stop buffer (100 mM HEPES pH 7.5, 0.015% Brij-35, 10 mM EDTA (Sigma, E7889)).The plate is read on a Caliper LC 3000 in an Off-Chip mobility shift assay format, using the following parameters for a 12-sipper chip: screening pressure -2.3 psi, upstream voltage -500, and downstream voltage -3000.
[2] = target: Ribosomal protein S6 kinase beta-1 (Homo sapiens, UniProt P23443, T412E); experiment: P70S6K Enzyme Assay: P70S6K inhibitor compounds are diluted and plated in 96 well plates. A reaction mixture including the following components is then added to the compound plate to initiate the enzyme reaction; P70S6K (3 nM, T412E mutant, Millipore) is mixed with 24 uM ATP in an assay buffer containing 100 mM Hepes (pH 7.5), 5 mM MgCl2, 1 mM DTT, 0.015% Brij and 1 uM of the substrate peptide FITC-AHA-[…]-OH (derived from the S6 ribosomal protein sequence, FITC=fluorescein isothiocyanate, AHA=6-aminohexanoic acid). The reaction is incubated for 90 min at 25° C., before the addition of 10 mM EDTA to stop the reaction. The proportion of substrate and product (phosphorylated) peptide is analysed on a Caliper Life Sciences Lab Chip 3000, using a pressure of -1.4 psi, and upstream and downstream voltages of -3000 and -700 respectively. Product peaks are resolved before substrate peaks on the resulting chromatograms.
Sequence of Ribosomal protein S6 kinase beta-1 (P23443 whole entry T412E): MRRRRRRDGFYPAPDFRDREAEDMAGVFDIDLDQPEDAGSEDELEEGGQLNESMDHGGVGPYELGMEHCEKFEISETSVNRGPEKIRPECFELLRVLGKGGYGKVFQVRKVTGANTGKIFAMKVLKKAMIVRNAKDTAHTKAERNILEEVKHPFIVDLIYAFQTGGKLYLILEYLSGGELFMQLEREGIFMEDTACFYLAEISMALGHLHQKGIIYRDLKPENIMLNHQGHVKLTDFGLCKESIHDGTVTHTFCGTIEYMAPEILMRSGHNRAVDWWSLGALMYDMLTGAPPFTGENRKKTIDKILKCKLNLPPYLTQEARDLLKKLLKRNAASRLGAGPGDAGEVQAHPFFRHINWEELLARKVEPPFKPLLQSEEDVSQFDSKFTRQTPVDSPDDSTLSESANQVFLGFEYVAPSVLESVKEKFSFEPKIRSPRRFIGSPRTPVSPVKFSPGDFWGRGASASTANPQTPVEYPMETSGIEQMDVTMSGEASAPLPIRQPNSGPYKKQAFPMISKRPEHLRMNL

Sequence of RAC-alpha serine/threonine-protein kinase (P31749 whole entry): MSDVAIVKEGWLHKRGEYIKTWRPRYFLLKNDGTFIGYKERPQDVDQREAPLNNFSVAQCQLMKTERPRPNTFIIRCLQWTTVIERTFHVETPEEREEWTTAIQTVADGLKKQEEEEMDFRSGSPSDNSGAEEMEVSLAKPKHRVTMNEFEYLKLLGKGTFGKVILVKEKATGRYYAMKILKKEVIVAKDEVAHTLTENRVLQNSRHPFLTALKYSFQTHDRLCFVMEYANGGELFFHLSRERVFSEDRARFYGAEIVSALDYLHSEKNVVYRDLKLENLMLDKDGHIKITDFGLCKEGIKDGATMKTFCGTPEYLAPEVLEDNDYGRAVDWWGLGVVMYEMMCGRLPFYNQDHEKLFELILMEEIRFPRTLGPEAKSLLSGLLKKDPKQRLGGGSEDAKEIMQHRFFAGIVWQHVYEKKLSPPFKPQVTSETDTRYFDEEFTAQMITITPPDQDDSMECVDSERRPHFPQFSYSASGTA

**Q.** Which IC50 [1] does the source give for CCc1c(N)ncnc1N1CCC(c2nc(-c3cccc(Cl)n3)cn2CCN2CCC2)CC1 here?
**A.** 780 nM

**Q.** And the IC50 [2]?
**A.** 58 nM

Source: ChEMBL document CHEMBL3886265, “Imidazole amines as modulators of kinase activity” (2015)
